Laboratory results: article PMC8765781, “A platform of assays for the discovery of anti-Zika small-molecules with activity in a 3D-bioprinted outer-blood-retina model” (PLoS ONE, 2022)
Read-outs that look alike come from different tables or passages of the source.

What was measured:
[1] = system: ZIKV-RLuc (Cambodian strain FSS13025); test: microbe, parasite or virus in culture; assay type: cell-based, Zika virus
[2] = system: Vero cells
[3] = Zika virus, Vero, read-out: Log AC50 (M) (converted)

Row | SMILES | CC-v2 (curve class classification v2 of the dose response curve) [1] | Efficacy (difference between neutral response and maximum compound response) [1] | Max Resp (difference between neutral response and compound response for highest compound concentration) [1] | AC50 ([1]; Zika virus, Vero) [M] | AC50 [1, 3] [M] | AC50 [2] [µM] | Log AC50 (M) [2] [M] | AC50 [1] [M] | Log AC50 (M) [1]
1 | Cc1nc2cnc3ccc(C#Cc4cccnc4)cc3c2n1-c1ccc(C(C)(C)C#N)cc1 [NCGC00263088-01] | -1.1 | -103.241 | -92.032 | 5.85e-06 | 5.85e-06 | 5.85 | -5.2327 | – | –
2 | COc1cc(C(C)C)c2c(c1)[S+](=O)([O-])N(COc1cc(=O)n3cccc(OCCN4CCCCC4)c3n1)C2=O [NCGC00167751-03] | -2.1 | -105.384 | -99.738 | 2.33e-05 | 2.33e-05 | 23.3 | -4.6327 | – | –
3 | O=C(/C=C/c1ccccc1)CC(O)CCc1ccccc1 (stereo not shown) [NCGC00180705-02] | -2.2 | -46.506 | -73.055 | 2.33e-05 | 2.33e-05 | 23.3 | -4.6327 | – | –
4 | CNCCC(Oc1ccc(C(F)(F)F)cc1)c1ccccc1 (stereo not shown) [NCGC00015428-15] | -2.2 | -78.657 | -76.003 | 1.65e-05 | 1.65e-05 | 16.5 | -4.7827 | – | –
5 | NC1(c2ccc(-c3nc4ccn5c(=O)[nH]nc5c4cc3-c3ccccc3)cc2)CCC1 [NCGC00186465-04] | -2.1 | -108.058 | -98.999 | – | – | – | -4.6827 | 2.08e-05 | -4.6827
6 | C=C1[C@@H](O)[C@]2(O)OC[C@]34C2[C@]2(C)C(C[C@H]3OC(=O)[C@H](O)[C@@]14O)C(C)=CC(=O)[C@H]2O (stereo partly shown) [NCGC00347491-02] | -2.2 | -33.078 | -33.995 | 7.23e-06 | 7.23e-06 | 7.23 | -5.1408 | – | –
7 | CN1CCCC(CC2c3ccccc3Sc3ccccc32)C1.Cl (stereo not shown) [NCGC00273481-01] | -3 | -90.373 | -72.236 | 3.69e-05 | 3.69e-05 | 36.9 | -4.4327 | – | –
8 | CC#C[C@]1(O)CC[C@H]2[C@@H]3CCC4=CC(=O)CCC4=C3[C@@H](c3ccc(N(C)C)cc3)C[C@@]21C [NCGC00025179-12] | -3 | -109.046 | -95.447 | 2.61e-05 | 2.61e-05 | 26.1 | -4.5827 | – | –
9 | O=c1[nH]c2ccccc2n1C1CCN(CCCC(c2ccc(F)cc2)c2ccc(F)cc2)CC1 [NCGC00015802-18] | -2.1 | -98.365 | -96.477 | 2.08e-05 | 2.08e-05 | 20.8 | -4.6827 | – | –
10 | CC(=O)O[C@H]1C(=O)[C@@]2(C)C([C@H](OC(=O)c3ccccc3)[C@]3(O)C[C@H](OC(=O)[C@H](O)[C@@H](NC(=O)c4ccccc4)c4ccccc4)C(C)=C1C3(C)C)[C@]1(OC(C)=O)CO[C@@H]1C[C@@H]2O (stereo partly shown) [NCGC00024995-10] | -2.2 | -75.217 | -63.948 | 2.08e-05 | 2.08e-05 | 20.8 | -4.6827 | – | –
11 | CCCCCCCCOc1ccccc1C(=O)Nc1ccc(C(=O)OCC[N+](C)(CC)CC)cc1.[Br-] [NCGC00163507-03] | -2.4 | -66.096 | -65.496 | 2.08e-05 | 2.08e-05 | 20.8 | -4.6827 | – | –
12 | CCCCCCCCCCC(C)(C)C(=O)Nc1c(OC)cc(OC)cc1OC [NCGC00092343-02] | -3 | -55.755 | -44.379 | 3.69e-05 | 3.69e-05 | – | -4.4327 | – | –
13 | C[C@@H]1C[C@H]2[C@@H]3CCC4=CC(=O)C=C[C@]4(C)[C@@]3(Cl)[C@@H](O)C[C@]2(C)[C@@]1(OC(=O)c1ccco1)C(=O)CCl [NCGC00179578-03] | -2.1 | -100.838 | -97.726 | 2.33e-05 | 2.33e-05 | 23.3 | -4.6327 | – | –
14 | CC(C)C[C@H](NC(=O)[C@H](CCc1ccccc1)NC(=O)CN1CCOCC1)C(=O)N[C@@H](Cc1ccccc1)C(=O)N[C@@H](CC(C)C)C(=O)[C@@]1(C)CO1 [NCGC00249613-01] | -1.1 | -103.056 | -99.72 | 2.33e-06 | 2.33e-06 | 2.33 | -5.6327 | – | –
15 | Oc1c(Cl)cc(Cl)c(Cl)c1Cc1c(O)c(Cl)cc(Cl)c1Cl [NCGC00091195-08] | -1.1 | -99.169 | -99.917 | 2.33e-06 | 2.33e-06 | 2.33 | -5.6327 | – | –
16 | CC(NCc1ccc2c(c1)[nH]/c(=N\C(=O)c1ccc(-c3cn[nH]c3)s1)n2CC(C)(C)O)C(C)(C)C (stereo not shown) [NCGC00188382-05] | -1.1 | -97.056 | -99.599 | 1.47e-06 | 1.47e-06 | 1.47 | -5.8327 | – | –
17 | C[C@H]1O[C@@H](O[C@H]2[C@@H](O)C[C@H](O[C@H]3[C@@H](O)C[C@H](O[C@H]4CC[C@@]5(C)[C@H](CC[C@@H]6[C@@H]5C[C@@H](O)[C@]5(C)[C@@H](C7=CC(=O)OC7)CC[C@]65O)C4)O[C@@H]3C)O[C@@H]2C)C[C@H](O)[C@@H]1O [NCGC00090797-01] | -1.1 | -107.599 | -98.918 | 4.65e-07 | 4.65e-07 | 0.465 | -6.3327 | – | –
18 | CC(=O)OC1C=C(CO)C(=O)C(OC(=O)CC(C)C)C1C(C)C (stereo not shown) [NCGC00347760-02] | -3 | -123.001 | -99.998 | 3.69e-05 | 3.69e-05 | 36.9 | -4.4327 | – | –
19 | O=C(O)C1=CO[C@@H](O[C@@H]2O[C@H](CO)[C@@H](O)[C@H](O)[C@H]2O)[C@@H]2C(CO)=CC[C@H]12 [NCGC00346663-03] | -3 | -105.712 | -86.968 | 2.56e-05 | 2.56e-05 | 25.6 | -4.5925 | – | –
20 | COc1c(C)cnc(Cn2cnc3c(Cl)nc(N)nc32)c1C [NCGC00247877-01] | -1.2 | -34.341 | -31.198 | 1.85e-07 | 1.85e-07 | 0.185 | -6.7327 | – | –
21 | CC1CCCC(SCC(O)C(=O)O)CC(=O)c2c(O)cc(O)cc2CC(=O)O1 (stereo not shown) [NCGC00380419-01] | -3 | -93.408 | -77.007 | 1.82e-05 | 1.82e-05 | 18.2 | -4.7408 | – | –
22 | ClC1=C(Cl)[C@]2(Cl)[C@@H]3[C@@H]4C[C@@H]([C@H]5O[C@@H]45)[C@@H]3[C@@]1(Cl)C2(Cl)Cl [NCGC00244579-01] | -3 | -117.983 | -96.11 | 7.59e-05 | 7.59e-05 | 75.9 | -4.1199 | – | –
23 | O=C(Nc1ccc([N+](=O)[O-])cc1Cl)c1cc(Cl)ccc1O [NCGC00015735-12] | -1.1 | -94.574 | -99.55 | – | – | 1.04 | -5.9827 | 1.04e-06 | -5.9827
24 | CN(C)c1ccc(C(=O)NCCCCCCC(=O)NO)cc1 [NCGC00263617-05] | -1.1 | -93.524 | -92.631 | 1.04e-05 | 1.04e-05 | 10.4 | -4.9827 | – | –
